# Measurements published in patent US5808060A, “Fused isoindolones” (Cephalon, Inc., priority 1996, dated 1998).
# pIC50: −log10 of the molar value.
# Legend:
# [1] = target: protein kinase C; test: PKC Activity Inhibition Assay; format: biochemical
# Description: Fused isoindolones inhibited the activity of protein kinase C (Table VI). The protein kinase C assay has been disclosed (Murakata et al., U.S. Pat. No. 4,923,986; Kikkawa et al., J. Biol. Chem. 257: 13341-13348 (1982)). The assay was performed with several concentrations of fused isoindolones. The concentration at which protein kinase C was 50% inhibited (IC50) was determined.
# [2] = test system: dissociated rat embryonic spinal cord culture (ChAT activity); test: Spinal Cord ChAT Activity Assay; format: cell-based; conditions: after 2-3 hour plating period; single application; ChAT measured 48 hours later; control cultures not treated
# Description: As noted, ChAT is a specific biochemical marker for functional cholinergic neurons. Cholinergic neurons represent the major cholinergic input into the hippocampal formation, olfactory nucleus, interpeduncular nucleus, cortex, amygdala, and parts of the thalamus. In the spinal cord, the motor neurons are cholinergic neurons which contain ChAT (Phelps et al., J. Comp. Neurol. 273: 459-472 (1988)). ChAT activity has been used to study the effects of neurotrophins (e.g., NGF or NT-3) on the survival and/or function of cholinergic neurons. The ChAT assay also serves as an indication of the regulation of ChAT levels within cholinergic neurons.
# Fused isoindolone derivatives increased ChAT activity in the dissociated rat embryonic spinal cord culture assay (FIG. 1). […]
# Methods: Fetal rat spinal cord cells were dissociated, and experiments were performed as described (Smith et al., J. Cell Biology 101: 1608-1621 (1985); Glicksman et al., J. Neurochem. 61: 210-221 (1993)). […] ChAT activity was measured after 2 days in vitro using a modification of the Fonnum procedure (Fonnum, J. Neurochem. 24: 407-409 (1975)) according to McManaman et al. and Glicksman et al. (McManaman et al., Developmental Biology 125: 311-320 (1988); Glicksman et al., J. Neurochem. 61: 210-221 (1993)).
# [3] = target: trkA tyrosine kinase (Homo sapiens, UniProt P04629); test: trkA Tyrosine Kinase Activity Inhibition Assay (ELISA); format: biochemical; conditions: PLCγ/pGEX substrate, 16 μM ATP, 37° C., 15 min, read-out: trk A INHIBITION IC50
# Description: Fused isoindolones inhibited trkA tyrosine kinase activity as determined by ELISA. trkA is a high affinity receptor for neurotrophins. Fused isoindolones were added to 96-well microtiter plates that were previously coated with a phosphorylation substrate (phospholipase C-γ (PLCγ)/pGEX fusion protein) (see Rotin, et al., 11 EMBO J. 559, 1992). These compounds were then tested for the ability to inhibit substrate phosphorylation by the trkA tyrosine kinase.
# Methods: 96-well ELISA plates (Nunc) were coated with 100 μl/well of the phosphorylation substrate (40 μg/ml) PLCγ/pGEX fusion protein) in 20 mM Tris, pH 7.6, 137 mM NaCl, and 0.02% NaN3 overnight at 4° C. […] Plates were washed three times with TBST, followed by two washes with TBS (TBST sans Tween-20). Fused pyrrolocarbozoles were then added at various concentrations to a reaction mixture (50 mM HEPES, pH 7.4, 5 mM MnCl2, 5 mM MgCl2, 140 mM NaCl, 16 μM ATP, and 15 ng trkA in a total volume of 100 μL.). As a negative control, 100 mM EDTA was included in the reaction solution. The plates were then incubated at 37° C. for 15 min. The detection antibody, monoclonal anti-phosphotyrosine antibody (UBI), was added at a dilution of 1:2000 in TBST, and incubated for 1 hour at 37° C. […] The colored product was read at 490 nm in a microplate reader (Biotek).
# [4] = test system: basal forebrain cultures (ChAT activity); test: Basal Forebrain ChAT Activity Assay; format: cell-based, rat; conditions: preliminary assays; ChAT assessed 5 days after plating
# Description: Fused isoindolone derivatives were tested for the ability to increase ChAT activity of basal forebrain cultures.
# Methods: The basal forebrain was dissected from rat embryos (day 17 or 18 embryos) and the cells were dissociated with a neutral protease (Dispase™, Collaborative Research). Neurons were plated at a density of 5×10^4 cells/well (1.5×10^5 cells/cm^2) in poly-l-ornithine and laminin coated plates. Cells were cultured in serum-free N2 medium containing 0.05% BSA at 37° C. in a humidified atmosphere, 5% CO2 /95% air. ChAT activity was assessed 5 days after plating by using the ChAT assay as described in Example III(A)(1).
# Sequence of trkA tyrosine kinase (P04629 33-796): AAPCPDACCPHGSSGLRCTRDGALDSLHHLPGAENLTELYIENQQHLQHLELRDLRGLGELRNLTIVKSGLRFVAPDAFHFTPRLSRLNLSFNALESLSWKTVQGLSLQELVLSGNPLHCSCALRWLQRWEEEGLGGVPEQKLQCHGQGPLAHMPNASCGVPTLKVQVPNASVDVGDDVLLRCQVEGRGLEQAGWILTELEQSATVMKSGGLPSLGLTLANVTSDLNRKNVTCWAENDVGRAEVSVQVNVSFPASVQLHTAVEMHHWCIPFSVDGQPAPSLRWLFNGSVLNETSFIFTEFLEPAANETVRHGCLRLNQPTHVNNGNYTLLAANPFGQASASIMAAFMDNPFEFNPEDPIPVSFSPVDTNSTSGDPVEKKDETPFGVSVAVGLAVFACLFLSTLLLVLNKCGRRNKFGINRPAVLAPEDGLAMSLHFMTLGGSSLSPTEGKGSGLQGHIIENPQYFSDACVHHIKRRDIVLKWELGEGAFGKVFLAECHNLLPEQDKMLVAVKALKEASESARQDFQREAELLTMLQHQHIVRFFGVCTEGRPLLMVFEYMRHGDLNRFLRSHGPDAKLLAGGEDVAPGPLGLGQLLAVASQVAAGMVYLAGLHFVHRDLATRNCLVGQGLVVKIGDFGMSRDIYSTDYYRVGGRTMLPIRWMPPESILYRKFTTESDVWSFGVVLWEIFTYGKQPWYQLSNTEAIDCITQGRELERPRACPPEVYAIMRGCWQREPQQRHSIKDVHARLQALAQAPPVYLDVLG
Compound,pIC50 [1],increased ChAT activity over control cultures (spinal cord) [2],pIC50 [3],effect on basal forebrain ChAT activity [4]
"O=C1NC(=O)c2c1c1c(c3c2-c2ccccc2C3)Cc2ccccc2-1 [Compound I-1, 1H-Indenyl[2,3-c]-1H-indenyl[2,3-e]isoindol-1,3-dione]",6.19,–,–,–
"O=C1NCc2c1c1c(c3c2-c2ccccc2C3)Cc2ccccc2-1 [Compound I-2, 1H-Indenyl[2,3-c]-1H-indenyl[2,3-e]-3H-isoindol-1-one]",5.70,150 % over control,6.72,–
"O=C1NC(=O)c2c1c1c3ccccc3sc1c1sc3ccccc3c21 [Compound I-3, Benzothieno[2,3-c]benzothieno[2,3-e]isoindol-1,3-dione]",–,–,–,did not increase ChAT activity
"O=C1NCc2c1c1c3ccccc3sc1c1sc3ccccc3c21 [Compound I-4, Benzothieno[2,3-c]benzothieno[2,3-e]isoindol-1-one]",–,–,–,did not increase ChAT activity
